PubChem BioAssay (NCI)
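All cell lines were grown in 96-well plates and treated with compound for 48 hours. TGI: concentration producing complete growth inhibition.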

These compounds were tested on MCF7 breast (assay: DTP human tumour cell line panel, 48 h).

SMILES	TGI
CC(=O)/C(=C\I)c1ccccc1	4.05 µM
C=CCN1CCC(c2cc(C(=O)OCC)[nH]c2-c2cc(C)no2)C1=O (centres undefined)	> 100 µM
CC(=O)N1C(Nc2nccs2)CCN1c1ccccc1 (centres undefined)	> 10 µM
Cc1cc(NS(=O)(=O)c2ccc(N=[N+]([O-])c3ccc(S(=O)(=O)Nc4cc(C)on4)cc3)cc2)no1	> 100 µM
Cc1ccc(S(=O)(=O)N/N=C2/CCC3(O)CC2(C)CCC2[C@H]3CC2(C)C)cc1 (some centres undefined)	> 100 µM
CCCCCCCCCCCCOCC1(COCCCCCCCCCCCC)COC(c2ccc(N)cc2)OC1	> 100 µM
CC(C)OP(=O)(OC(C)C)C(C)(C)O	> 100 µM
Cc1cn(C2CC(N=[N+]=[N-])C(COP(=O)(O)OCC3OC(n4cc(F)c(=O)[nH]c4=O)CC3O)O2)c(=O)[nH]c1=O (centres undefined)	> 100 µM
NC(=O)[N+](=CC(=S)Nc1ccccc1Cl)C(N)=O	> 100 µM

Each compound was assayed on NCI-H522 lung (assay: DTP human tumour cell line panel, 48 h).

SMILES	TGI
CCCCCCCCCCCCCCCCNC(=O)/C(=C\c1ccc(Cl)c(Cl)c1)NC(=O)c1ccccc1	> 100 µM
COc1cc2cc(C(=O)N3CC(CCl)c4ccc([N+](C)(C)Cc5ccccc5[N+](=O)[O-])cc43)[nH]c2c(OC)c1OC (centres undefined)	0.677 µM
CC(C)[C@H]1NC(=O)[C@H]2N=C(S[C@H]2C)[C@@H]2CCCN2C(=O)[C@H](Cc2ccccc2)NC(=O)[C@@H]2CSC(=N2)[C@@H](Cc2ccccc2)NC(=O)[C@@H]2CSC1=N2	45 µM
COC(=O)/C=C/[C@@H]1[C@H](C)N1S(=O)(=O)c1ccc(C)cc1 (some centres undefined)	> 100 µM
COc1cc([C@@H]2c3cc4c(cc3[C@@H](Nc3ccc(Cl)cc3C(=O)c3ccccc3)[C@H]3COC(=O)[C@H]23)OCO4)cc(OC)c1OC	0.918 µM
O=C1Oc2ccccc2C(=O)/C1=C/N1C(=O)CNC1=S	> 100 µM
CCCc1nc2c(n1CC)C(=O)c1ccccc1C2=O	> 100 µM
C1CCCN(NC2=NCCO2)CC1	> 100 µM
O=C1NCN(c2ccccc2)C12CCN(CC1COc3ccccc3O1)CC2 (centres undefined)	> 100 µM
CCOc1ccc(NC(=O)C(=O)Nn2c(N)nnc2N)cc1	> 100 µM
O=C1OC([C@H](O)c2cccnc2)c2ccccc21 (some centres undefined)	> 10 µM
CC(C)(C)O/N=C/c1cc(NC(=S)c2ccsc2)ccc1Cl	33.6 µM
Cc1cc(NS(=O)(=O)c2ccc(N=[N+]([O-])c3ccc(S(=O)(=O)Nc4cc(C)on4)cc3)cc2)no1	> 100 µM
Cc1ccc(S(=O)(=O)N/N=C2/CCC3(O)CC2(C)CCC2[C@H]3CC2(C)C)cc1 (some centres undefined)	91.9 µM
CC(C)OP(=O)(OC(C)C)C(C)(C)O	> 100 µM
Cc1cn(C2CC(N=[N+]=[N-])C(COP(=O)(O)OCC3OC(n4cc(F)c(=O)[nH]c4=O)CC3O)O2)c(=O)[nH]c1=O (centres undefined)	> 100 µM
NC(=O)[N+](=CC(=S)Nc1ccccc1Cl)C(N)=O	> 100 µM

Each compound was assayed on T-47D breast (assay: DTP human tumour cell line panel, 48 h).

SMILES	TGI
CCCCCCCCCCCCCCCCNC(=O)/C(=C\c1ccc(Cl)c(Cl)c1)NC(=O)c1ccccc1	> 100 µM
O=C(Nc1ccccc1)OCCN=C1c2ccccc2CCc2ccccc21	45 µM
COc1cc2cc(C(=O)N3CC(CCl)c4ccc([N+](C)(C)Cc5ccccc5[N+](=O)[O-])cc43)[nH]c2c(OC)c1OC (centres undefined)	12.5 µM
CC(C)[C@H]1NC(=O)[C@H]2N=C(S[C@H]2C)[C@@H]2CCCN2C(=O)[C@H](Cc2ccccc2)NC(=O)[C@@H]2CSC(=N2)[C@@H](Cc2ccccc2)NC(=O)[C@@H]2CSC1=N2	> 50 µM
COC(=O)/C=C/[C@@H]1[C@H](C)N1S(=O)(=O)c1ccc(C)cc1 (some centres undefined)	> 100 µM
COc1cc([C@@H]2c3cc4c(cc3[C@@H](Nc3ccc(Cl)cc3C(=O)c3ccccc3)[C@H]3COC(=O)[C@H]23)OCO4)cc(OC)c1OC	> 100 µM
O=C1Oc2ccccc2C(=O)/C1=C/N1C(=O)CNC1=S	> 100 µM
Cc1nn(C(=O)c2ccncc2)c2c1C(c1ccccc1[N+](=O)[O-])SC(N)=N2 (centres undefined)	> 10 µM
Cn1nnc2c3c(N(CCO)CCO)ccnc3ccc21	> 100 µM
Cc1ccc(S(=O)(=O)N2CCSCCSCCSCCN(S(=O)(=O)c3ccc(C)cc3)CC2)cc1	> 100 µM
CCCc1nc2c(n1CC)C(=O)c1ccccc1C2=O	> 100 µM
C1CCCN(NC2=NCCO2)CC1	> 100 µM
O=C1NCN(c2ccccc2)C12CCN(CC1COc3ccccc3O1)CC2 (centres undefined)	> 100 µM
CCOc1ccc(NC(=O)C(=O)Nn2c(N)nnc2N)cc1	> 100 µM
O=C1OC([C@H](O)c2cccnc2)c2ccccc21 (some centres undefined)	> 10 µM
CC(C)(C)O/N=C/c1cc(NC(=S)c2ccsc2)ccc1Cl	16.1 µM
CC(=O)/C(=C\I)c1ccccc1	3.83 µM
C=CCN1CCC(c2cc(C(=O)OCC)[nH]c2-c2cc(C)no2)C1=O (centres undefined)	> 100 µM
CC(=O)N1C(Nc2nccs2)CCN1c1ccccc1 (centres undefined)	> 10 µM
Cc1cc(NS(=O)(=O)c2ccc(N=[N+]([O-])c3ccc(S(=O)(=O)Nc4cc(C)on4)cc3)cc2)no1	> 100 µM
Cc1ccc(S(=O)(=O)N/N=C2/CCC3(O)CC2(C)CCC2[C@H]3CC2(C)C)cc1 (some centres undefined)	> 100 µM
CCCCCCCCCCCCOCC1(COCCCCCCCCCCCC)COC(c2ccc(N)cc2)OC1	> 100 µM
CC(C)OP(=O)(OC(C)C)C(C)(C)O	> 100 µM
Cc1cn(C2CC(N=[N+]=[N-])C(COP(=O)(O)OCC3OC(n4cc(F)c(=O)[nH]c4=O)CC3O)O2)c(=O)[nH]c1=O (centres undefined)	> 100 µM
NC(=O)[N+](=CC(=S)Nc1ccccc1Cl)C(N)=O	> 100 µM

Each compound was assayed on HCC-2998 colon (assay: DTP human tumour cell line panel, 48 h).

SMILES	TGI
O=C(Nc1ccccc1)OCCN=C1c2ccccc2CCc2ccccc21	45.9 µM
COc1cc2cc(C(=O)N3CC(CCl)c4ccc([N+](C)(C)Cc5ccccc5[N+](=O)[O-])cc43)[nH]c2c(OC)c1OC (centres undefined)	9 µM
CC(C)[C@H]1NC(=O)[C@H]2N=C(S[C@H]2C)[C@@H]2CCCN2C(=O)[C@H](Cc2ccccc2)NC(=O)[C@@H]2CSC(=N2)[C@@H](Cc2ccccc2)NC(=O)[C@@H]2CSC1=N2	28.2 µM
COC(=O)/C=C/[C@@H]1[C@H](C)N1S(=O)(=O)c1ccc(C)cc1 (some centres undefined)	> 100 µM
O=C1Oc2ccccc2C(=O)/C1=C/N1C(=O)CNC1=S	> 100 µM
Cc1nn(C(=O)c2ccncc2)c2c1C(c1ccccc1[N+](=O)[O-])SC(N)=N2 (centres undefined)	> 10 µM
Cn1nnc2c3c(N(CCO)CCO)ccnc3ccc21	91.2 µM
Cc1ccc(S(=O)(=O)N2CCSCCSCCSCCN(S(=O)(=O)c3ccc(C)cc3)CC2)cc1	> 100 µM
CCCc1nc2c(n1CC)C(=O)c1ccccc1C2=O	> 100 µM
C1CCCN(NC2=NCCO2)CC1	> 100 µM
O=C1NCN(c2ccccc2)C12CCN(CC1COc3ccccc3O1)CC2 (centres undefined)	> 100 µM
CCOc1ccc(NC(=O)C(=O)Nn2c(N)nnc2N)cc1	> 100 µM
O=C1OC([C@H](O)c2cccnc2)c2ccccc21 (some centres undefined)	> 10 µM
CC(C)(C)O/N=C/c1cc(NC(=S)c2ccsc2)ccc1Cl	27.6 µM
C=CCN1CCC(c2cc(C(=O)OCC)[nH]c2-c2cc(C)no2)C1=O (centres undefined)	> 100 µM
CC(=O)N1C(Nc2nccs2)CCN1c1ccccc1 (centres undefined)	> 10 µM
CCCCCCCCCCCCOCC1(COCCCCCCCCCCCC)COC(c2ccc(N)cc2)OC1	> 100 µM
CC(C)OP(=O)(OC(C)C)C(C)(C)O	> 100 µM
Cc1cn(C2CC(N=[N+]=[N-])C(COP(=O)(O)OCC3OC(n4cc(F)c(=O)[nH]c4=O)CC3O)O2)c(=O)[nH]c1=O (centres undefined)	> 100 µM
NC(=O)[N+](=CC(=S)Nc1ccccc1Cl)C(N)=O	> 100 µM

The compounds below were run on 786-0 renal (assay: DTP human tumour cell line panel, 48 h).

SMILES	TGI
CCCCCCCCCCCCCCCCNC(=O)/C(=C\c1ccc(Cl)c(Cl)c1)NC(=O)c1ccccc1	47.4 µM
O=C(Nc1ccccc1)OCCN=C1c2ccccc2CCc2ccccc21	> 100 µM
COc1cc2cc(C(=O)N3CC(CCl)c4ccc([N+](C)(C)Cc5ccccc5[N+](=O)[O-])cc43)[nH]c2c(OC)c1OC (centres undefined)	> 36.3 µM
CC(C)[C@H]1NC(=O)[C@H]2N=C(S[C@H]2C)[C@@H]2CCCN2C(=O)[C@H](Cc2ccccc2)NC(=O)[C@@H]2CSC(=N2)[C@@H](Cc2ccccc2)NC(=O)[C@@H]2CSC1=N2	> 50 µM
COC(=O)/C=C/[C@@H]1[C@H](C)N1S(=O)(=O)c1ccc(C)cc1 (some centres undefined)	> 100 µM
COc1cc([C@@H]2c3cc4c(cc3[C@@H](Nc3ccc(Cl)cc3C(=O)c3ccccc3)[C@H]3COC(=O)[C@H]23)OCO4)cc(OC)c1OC	> 100 µM
O=C1Oc2ccccc2C(=O)/C1=C/N1C(=O)CNC1=S	> 100 µM
Cc1nn(C(=O)c2ccncc2)c2c1C(c1ccccc1[N+](=O)[O-])SC(N)=N2 (centres undefined)	> 10 µM
Cn1nnc2c3c(N(CCO)CCO)ccnc3ccc21	> 100 µM
Cc1ccc(S(=O)(=O)N2CCSCCSCCSCCN(S(=O)(=O)c3ccc(C)cc3)CC2)cc1	> 100 µM
CCCc1nc2c(n1CC)C(=O)c1ccccc1C2=O	> 100 µM
C1CCCN(NC2=NCCO2)CC1	> 100 µM
O=C1NCN(c2ccccc2)C12CCN(CC1COc3ccccc3O1)CC2 (centres undefined)	> 100 µM
CCOc1ccc(NC(=O)C(=O)Nn2c(N)nnc2N)cc1	> 100 µM
O=C1OC([C@H](O)c2cccnc2)c2ccccc21 (some centres undefined)	> 10 µM
CC(C)(C)O/N=C/c1cc(NC(=S)c2ccsc2)ccc1Cl	31.6 µM
CC(=O)/C(=C\I)c1ccccc1	4.13 µM
C=CCN1CCC(c2cc(C(=O)OCC)[nH]c2-c2cc(C)no2)C1=O (centres undefined)	> 100 µM
CC(=O)N1C(Nc2nccs2)CCN1c1ccccc1 (centres undefined)	> 10 µM
Cc1cc(NS(=O)(=O)c2ccc(N=[N+]([O-])c3ccc(S(=O)(=O)Nc4cc(C)on4)cc3)cc2)no1	> 100 µM
Cc1ccc(S(=O)(=O)N/N=C2/CCC3(O)CC2(C)CCC2[C@H]3CC2(C)C)cc1 (some centres undefined)	> 100 µM
CCCCCCCCCCCCOCC1(COCCCCCCCCCCCC)COC(c2ccc(N)cc2)OC1	> 100 µM
CC(C)OP(=O)(OC(C)C)C(C)(C)O	> 100 µM
Cc1cn(C2CC(N=[N+]=[N-])C(COP(=O)(O)OCC3OC(n4cc(F)c(=O)[nH]c4=O)CC3O)O2)c(=O)[nH]c1=O (centres undefined)	> 100 µM
NC(=O)[N+](=CC(=S)Nc1ccccc1Cl)C(N)=O	> 100 µM

Each compound was assayed on HCT-116 colon (assay: DTP human tumour cell line panel, 48 h).

SMILES	TGI
CCCCCCCCCCCCCCCCNC(=O)/C(=C\c1ccc(Cl)c(Cl)c1)NC(=O)c1ccccc1	> 100 µM
O=C(Nc1ccccc1)OCCN=C1c2ccccc2CCc2ccccc21	30 µM
COc1cc2cc(C(=O)N3CC(CCl)c4ccc([N+](C)(C)Cc5ccccc5[N+](=O)[O-])cc43)[nH]c2c(OC)c1OC (centres undefined)	> 100 µM
CC(C)[C@H]1NC(=O)[C@H]2N=C(S[C@H]2C)[C@@H]2CCCN2C(=O)[C@H](Cc2ccccc2)NC(=O)[C@@H]2CSC(=N2)[C@@H](Cc2ccccc2)NC(=O)[C@@H]2CSC1=N2	> 50 µM
COC(=O)/C=C/[C@@H]1[C@H](C)N1S(=O)(=O)c1ccc(C)cc1 (some centres undefined)	> 100 µM
COc1cc([C@@H]2c3cc4c(cc3[C@@H](Nc3ccc(Cl)cc3C(=O)c3ccccc3)[C@H]3COC(=O)[C@H]23)OCO4)cc(OC)c1OC	> 100 µM
O=C1Oc2ccccc2C(=O)/C1=C/N1C(=O)CNC1=S	> 100 µM
Cc1nn(C(=O)c2ccncc2)c2c1C(c1ccccc1[N+](=O)[O-])SC(N)=N2 (centres undefined)	> 10 µM
Cn1nnc2c3c(N(CCO)CCO)ccnc3ccc21	> 100 µM
Cc1ccc(S(=O)(=O)N2CCSCCSCCSCCN(S(=O)(=O)c3ccc(C)cc3)CC2)cc1	> 100 µM
CCCc1nc2c(n1CC)C(=O)c1ccccc1C2=O	> 100 µM
C1CCCN(NC2=NCCO2)CC1	> 100 µM
O=C1NCN(c2ccccc2)C12CCN(CC1COc3ccccc3O1)CC2 (centres undefined)	> 100 µM
CCOc1ccc(NC(=O)C(=O)Nn2c(N)nnc2N)cc1	> 100 µM
O=C1OC([C@H](O)c2cccnc2)c2ccccc21 (some centres undefined)	> 10 µM
CC(C)(C)O/N=C/c1cc(NC(=S)c2ccsc2)ccc1Cl	26.5 µM
CC(=O)/C(=C\I)c1ccccc1	4.65 µM
C=CCN1CCC(c2cc(C(=O)OCC)[nH]c2-c2cc(C)no2)C1=O (centres undefined)	> 100 µM
